Results: US12258328B2, “6-membered heteroaryl-containing aminopyridine compounds as EGFR inhibitors” (YUHAN CORPORATION, priority 2021, dated 2025)
Where two headings read alike, the source gives them in different places.

Experiments:
[1] = target: EGFR wildtype (Homo sapiens, UniProt P00533); test: Biochemical EGFR kinase assay (Lance Ultra TR-FRET), wildtype
Method in brief: (§1)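 Enzyme reactions lasted 1 hour at room temperature with test compounds between 0.003 and 10 μM, followed by 10 mM EDTA quench.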

[2] = target: EGFR L858R/T790M/C797S (Homo sapiens, UniProt P00533, C797S/L858R/T790M); test: Biochemical EGFR kinase assay (Lance Ultra TR-FRET), triple mutant L858R/T790M/C797S
EGFR L858R/T790M/C797S, sequence (P00533 25-1210 T790M/C797S/L858R): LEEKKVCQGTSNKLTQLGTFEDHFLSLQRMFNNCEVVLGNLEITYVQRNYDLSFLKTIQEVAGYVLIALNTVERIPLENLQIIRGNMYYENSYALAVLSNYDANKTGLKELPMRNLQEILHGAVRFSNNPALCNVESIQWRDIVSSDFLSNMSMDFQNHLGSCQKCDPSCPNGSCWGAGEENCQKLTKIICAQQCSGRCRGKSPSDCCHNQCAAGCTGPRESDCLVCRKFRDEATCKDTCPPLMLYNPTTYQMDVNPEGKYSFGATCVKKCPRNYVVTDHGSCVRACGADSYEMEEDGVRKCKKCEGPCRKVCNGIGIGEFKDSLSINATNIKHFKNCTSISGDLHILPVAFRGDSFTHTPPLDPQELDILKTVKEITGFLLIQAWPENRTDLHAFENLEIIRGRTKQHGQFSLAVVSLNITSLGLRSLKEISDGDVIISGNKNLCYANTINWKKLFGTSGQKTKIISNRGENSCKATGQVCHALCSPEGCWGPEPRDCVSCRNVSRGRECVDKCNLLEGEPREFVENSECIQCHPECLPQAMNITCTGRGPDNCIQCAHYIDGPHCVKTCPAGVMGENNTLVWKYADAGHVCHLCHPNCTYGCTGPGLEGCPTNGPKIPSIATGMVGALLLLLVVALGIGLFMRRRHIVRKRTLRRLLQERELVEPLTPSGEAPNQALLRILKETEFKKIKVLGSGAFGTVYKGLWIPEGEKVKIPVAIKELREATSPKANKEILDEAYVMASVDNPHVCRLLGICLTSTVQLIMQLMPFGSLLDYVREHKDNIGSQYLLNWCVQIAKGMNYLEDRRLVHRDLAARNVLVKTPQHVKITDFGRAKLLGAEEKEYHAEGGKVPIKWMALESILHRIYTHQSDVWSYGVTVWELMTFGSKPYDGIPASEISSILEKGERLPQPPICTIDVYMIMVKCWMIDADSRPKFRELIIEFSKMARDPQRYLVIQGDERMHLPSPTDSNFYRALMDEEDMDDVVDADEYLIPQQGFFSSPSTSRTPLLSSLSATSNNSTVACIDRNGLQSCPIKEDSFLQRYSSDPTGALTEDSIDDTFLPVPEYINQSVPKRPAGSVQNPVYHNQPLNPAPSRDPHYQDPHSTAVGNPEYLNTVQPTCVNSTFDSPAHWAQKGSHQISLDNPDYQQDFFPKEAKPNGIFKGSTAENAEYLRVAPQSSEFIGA
Method in brief: as §1

[3] = target: EGFR L858R/C797S (Homo sapiens, UniProt P00533, C797S/L858R); test: Biochemical EGFR kinase assay (Lance Ultra TR-FRET), double mutant L858R/C797S
EGFR L858R/C797S, sequence (P00533 25-1210 C797S/L858R): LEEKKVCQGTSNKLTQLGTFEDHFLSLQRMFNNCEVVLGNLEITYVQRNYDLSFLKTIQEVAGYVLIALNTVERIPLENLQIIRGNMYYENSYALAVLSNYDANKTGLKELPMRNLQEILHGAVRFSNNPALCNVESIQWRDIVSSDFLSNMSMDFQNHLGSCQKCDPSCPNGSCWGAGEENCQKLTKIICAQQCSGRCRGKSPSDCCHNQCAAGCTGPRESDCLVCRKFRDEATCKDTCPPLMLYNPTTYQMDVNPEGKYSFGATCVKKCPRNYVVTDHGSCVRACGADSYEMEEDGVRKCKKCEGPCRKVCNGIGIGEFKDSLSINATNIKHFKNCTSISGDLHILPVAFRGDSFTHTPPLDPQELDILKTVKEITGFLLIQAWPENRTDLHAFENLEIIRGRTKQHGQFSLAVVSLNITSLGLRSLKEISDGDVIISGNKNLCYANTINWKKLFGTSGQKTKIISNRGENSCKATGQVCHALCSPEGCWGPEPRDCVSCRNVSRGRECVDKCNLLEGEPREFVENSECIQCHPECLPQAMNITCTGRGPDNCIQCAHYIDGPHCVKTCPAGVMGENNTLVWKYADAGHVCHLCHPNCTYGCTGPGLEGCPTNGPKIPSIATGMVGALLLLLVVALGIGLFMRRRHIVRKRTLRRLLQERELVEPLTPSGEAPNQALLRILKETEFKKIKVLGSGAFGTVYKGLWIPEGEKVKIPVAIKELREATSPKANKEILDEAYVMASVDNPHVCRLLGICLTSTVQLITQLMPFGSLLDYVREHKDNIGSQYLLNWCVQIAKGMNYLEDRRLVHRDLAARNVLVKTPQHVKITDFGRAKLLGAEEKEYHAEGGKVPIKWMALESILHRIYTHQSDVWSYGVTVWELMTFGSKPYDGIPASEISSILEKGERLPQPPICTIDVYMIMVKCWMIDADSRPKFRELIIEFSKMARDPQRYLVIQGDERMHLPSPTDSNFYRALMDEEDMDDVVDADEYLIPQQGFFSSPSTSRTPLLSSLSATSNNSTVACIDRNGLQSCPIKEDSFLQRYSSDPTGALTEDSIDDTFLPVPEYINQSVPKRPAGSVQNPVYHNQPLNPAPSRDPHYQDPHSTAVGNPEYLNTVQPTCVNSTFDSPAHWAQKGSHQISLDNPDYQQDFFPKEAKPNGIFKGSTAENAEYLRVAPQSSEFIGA
Method in brief: as §1

[4] = target: EGFR del19/T790M/C797S (Homo sapiens, UniProt P00533, C797S/DEL746-750/T790M); test: Biochemical EGFR kinase assay (Lance Ultra TR-FRET), triple mutant del19/T790M/C797S
Method in brief: as §1

[5] = target: EGFR del19/C797S (Homo sapiens, UniProt P00533, C797S/DEL746-750); test: Biochemical EGFR kinase assay (Lance Ultra TR-FRET), double mutant del19/C797S
EGFR del19/C797S, sequence (P00533 with tags, fused parts or gaps DEL746-750/C797S): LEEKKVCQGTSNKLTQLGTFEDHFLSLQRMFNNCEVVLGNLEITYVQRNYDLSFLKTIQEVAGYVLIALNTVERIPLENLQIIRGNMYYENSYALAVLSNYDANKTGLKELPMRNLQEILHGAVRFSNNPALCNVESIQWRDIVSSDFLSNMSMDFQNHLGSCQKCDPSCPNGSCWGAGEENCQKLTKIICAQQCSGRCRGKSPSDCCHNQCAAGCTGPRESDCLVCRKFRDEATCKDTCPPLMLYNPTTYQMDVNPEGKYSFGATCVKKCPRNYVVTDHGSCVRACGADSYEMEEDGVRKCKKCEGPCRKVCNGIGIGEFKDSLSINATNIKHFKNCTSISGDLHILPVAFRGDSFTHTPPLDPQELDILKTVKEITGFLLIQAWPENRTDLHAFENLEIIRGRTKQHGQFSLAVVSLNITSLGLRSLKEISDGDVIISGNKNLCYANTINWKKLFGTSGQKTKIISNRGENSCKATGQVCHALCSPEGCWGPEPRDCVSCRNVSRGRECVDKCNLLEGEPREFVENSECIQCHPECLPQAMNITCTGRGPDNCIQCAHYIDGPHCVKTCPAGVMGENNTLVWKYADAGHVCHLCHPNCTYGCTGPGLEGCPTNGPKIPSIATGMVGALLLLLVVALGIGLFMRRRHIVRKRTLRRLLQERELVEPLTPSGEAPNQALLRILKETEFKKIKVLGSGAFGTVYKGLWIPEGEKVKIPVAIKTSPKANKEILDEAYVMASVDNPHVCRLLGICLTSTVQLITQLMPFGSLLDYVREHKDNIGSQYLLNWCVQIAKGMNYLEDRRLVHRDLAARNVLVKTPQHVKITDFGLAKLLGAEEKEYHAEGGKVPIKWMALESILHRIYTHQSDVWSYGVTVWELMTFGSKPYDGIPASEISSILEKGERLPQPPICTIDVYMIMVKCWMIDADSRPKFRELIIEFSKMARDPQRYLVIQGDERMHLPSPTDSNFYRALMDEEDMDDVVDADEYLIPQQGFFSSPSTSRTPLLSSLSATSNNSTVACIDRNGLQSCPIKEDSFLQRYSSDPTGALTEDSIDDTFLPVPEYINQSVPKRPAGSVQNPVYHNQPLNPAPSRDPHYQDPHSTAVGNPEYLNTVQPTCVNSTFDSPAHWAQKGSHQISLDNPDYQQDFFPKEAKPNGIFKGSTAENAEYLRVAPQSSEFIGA
Method in brief: as §1

[6] = IC50 WT (nM) 100 μM ATP, 100 μM ATP
[7] = Km ATP, read-out: IC50 WT (nM) Km ATP
[8] = IC50 L858R/T790M/C797S (nM) 100 μM ATP, 100 μM ATP
[9] = IC50 L858R/C797S (nM) 100 μM ATP, 100 μM ATP
[10] = Km ATP, read-out: IC50 L858R/C797S (nM) Km ATP
[11] = IC50 del19/T790M/C797S (nM) 100 μM ATP, 100 μM ATP
[12] = Km ATP, read-out: IC50 del19/T790M/C797S (nM) Km ATP
[13] = IC50 del19/C797S (nM) 100 μM ATP, 100 μM ATP
[14] = Km ATP, read-out: IC50 del19/C797S (nM) Km ATP
[15] = Km ATP, read-out: IC50 L858R/T790M/C797S (nM) Km ATP
[16] = ATP at Km, read-out: IC50 WT, Km ATP
[17] = ATP at Km, read-out: IC50 L858R/T790M/C797S, Km ATP
[18] = ATP at Km, read-out: IC50 L858R/C797S, Km ATP
[19] = ATP at Km, read-out: IC50 del19/T790M/C797S, Km ATP
[20] = ATP at Km, read-out: IC50 del19/C797S, Km ATP

EGFR wildtype, sequence (P00533 25-1210): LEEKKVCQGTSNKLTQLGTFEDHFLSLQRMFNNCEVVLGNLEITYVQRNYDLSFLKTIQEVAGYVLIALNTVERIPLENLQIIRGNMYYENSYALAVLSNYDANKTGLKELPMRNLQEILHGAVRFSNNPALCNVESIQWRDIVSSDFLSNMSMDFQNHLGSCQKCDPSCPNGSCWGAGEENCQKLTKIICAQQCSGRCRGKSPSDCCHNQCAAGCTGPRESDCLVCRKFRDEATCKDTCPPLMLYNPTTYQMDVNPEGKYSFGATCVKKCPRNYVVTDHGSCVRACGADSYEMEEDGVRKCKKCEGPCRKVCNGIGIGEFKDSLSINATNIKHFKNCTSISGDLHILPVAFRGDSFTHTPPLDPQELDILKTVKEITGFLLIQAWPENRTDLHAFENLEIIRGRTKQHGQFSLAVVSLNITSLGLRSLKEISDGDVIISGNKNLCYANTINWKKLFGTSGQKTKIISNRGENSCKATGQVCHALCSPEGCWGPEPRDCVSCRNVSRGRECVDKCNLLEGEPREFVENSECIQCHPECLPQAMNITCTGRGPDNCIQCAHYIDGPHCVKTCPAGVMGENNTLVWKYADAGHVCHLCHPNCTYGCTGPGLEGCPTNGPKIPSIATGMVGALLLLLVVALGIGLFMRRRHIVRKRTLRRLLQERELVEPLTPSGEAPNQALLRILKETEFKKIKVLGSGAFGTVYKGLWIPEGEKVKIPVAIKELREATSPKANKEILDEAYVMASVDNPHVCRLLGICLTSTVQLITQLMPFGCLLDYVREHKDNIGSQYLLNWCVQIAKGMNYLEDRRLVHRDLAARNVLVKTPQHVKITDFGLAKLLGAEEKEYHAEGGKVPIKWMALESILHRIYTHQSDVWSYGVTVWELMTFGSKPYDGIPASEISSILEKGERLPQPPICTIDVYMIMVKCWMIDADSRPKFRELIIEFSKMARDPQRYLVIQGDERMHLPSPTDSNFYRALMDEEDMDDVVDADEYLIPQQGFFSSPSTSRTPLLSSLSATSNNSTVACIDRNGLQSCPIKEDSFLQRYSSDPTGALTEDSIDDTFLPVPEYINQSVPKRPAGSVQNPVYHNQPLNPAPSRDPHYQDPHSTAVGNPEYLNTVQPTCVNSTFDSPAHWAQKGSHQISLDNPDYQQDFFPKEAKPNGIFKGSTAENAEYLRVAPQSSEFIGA

SMILES	IC50 [1, 6] [nM]	IC50 [1, 7] [nM]	IC50 [2, 8] [nM]	IC50 [3, 9] [nM]	IC50 [3, 10] [nM]	IC50 [4, 11] [nM]	IC50 [4, 12] [nM]	IC50 [5, 13] [nM]	IC50 [5, 14] [nM]	IC50 [2, 15] [nM]	IC50 [1, 16] [nM]	IC50 [2, 17] [nM]	IC50 [3, 18] [nM]	IC50 [4, 19] [nM]	IC50 [5, 20] [nM]	also measured
CC(O)c1cccc(-c2cnc(Nc3ccnc(-c4cnn(S(=O)(=O)C5CC5)c4)n3)cc2NC2CCC(C)(O)CC2)n1 (stereo not drawn) [Example 23, (1s,4s)-4-((6′-((2-(1-(Cyclopropylsulfonyl)-1H-pyrazol-4-yl)pyrimidin-4-yl)amino)-6-(1-hydroxyethyl)-[2,3′-bipyridin]-4′-yl)amino)-1-methylcyclohexan-1-ol]	> 10000	13.7	1	6.2	0.6	1.1	1.6	5	1.8	–	–	–	–	–	–	–
CN1CCC(Oc2ccc(-c3cnc(Nc4ccnc(-c5cnc6c(c5)CCCO6)n4)cc3N[C@H]3CC[C@@](C)(O)CC3)nc2)CC1 [Example 142, (1s,4s)-4-((6′-((2-(3,4-Dihydro-2H-pyrano[2,3-b]pyridin-6-yl)pyrimidin-4-yl)amino)-5-((1-methylpiperidin-4-yl)oxy)-[2,3′-bipyridin]-4′-yl)amino)-1-methylcyclohexan-1-ol]	–	17.1	–	–	0.8	–	0.01	–	2	0.03	–	–	–	–	–	–
C[C@]1(O)CC[C@@H](Nc2cc(Nc3nc(-c4cnn(S(=O)(=O)C5CC5)c4)ncc3F)ncc2-c2ccc(CC(F)(F)F)cn2)CC1 [Example 299, (1s,4s)-4-((6′-((2-(1-(Cyclopropylsulfonyl)-1H-pyrazol-4-yl)-5-fluoropyrimidin-4-yl)amino)-5-(2,2,2-trifluoroethyl)-[2,3′-bipyridin]-4′-yl)amino)-1-methylcyclohexan-1-ol]	–	–	–	–	–	–	–	–	–	–	245	3.2	8.5	5.7	28.6	–
CN1CCN(C(=O)c2ccc(-c3cnc(Nc4ccnc(-c5cnn(S(=O)(=O)C6CC6)c5)n4)cc3N[C@H]3CC[C@@](C)(O)CC3)nc2)CC1 [Example 199, (6′-((2-(1-(Cyclopropylsulfonyl)-1H-pyrazol-4-yl)pyrimidin-4-yl)amino)-4′-(((1s,4s)-4-hydroxy-4-methylcyclohexyl)amino)-[2,3′-bipyridin]-5-yl)(4-methylpiperazin-1-yl)methanone]	–	–	–	–	–	–	–	–	–	–	0.3	0.1	0.04	0.4	0.1	IC50 ([1]; IC50 WT, 100 μM ATP): 137 nM; IC50 ([2]; IC50 L858R/T790M/C797S, 100 μM ATP): 0.3 nM; IC50 ([3]; IC50 L858R/C797S, 100 μM ATP): 0.4 nM; IC50 ([4]; IC50 del19/T790M/C797S, 100 μM ATP): 0.7 nM; IC50 ([5]; IC50 del19/C797S, 100 μM ATP): 0.3 nM
CC(C)(O)[C@H]1CC[C@@H](Nc2cc(Nc3ccnc(-c4cnn(S(=O)(=O)C5CC5)c4)n3)ncc2-c2ccc(N3CC(F)(F)C3)cn2)CC1 [Example 225, 2-((1s,4s)-4-((6′-((2-(1-(Cyclopropylsulfonyl)-1H-pyrazol-4-yl)pyrimidin-4-yl)amino)-5-(3,3-difluoroazetidin-1-yl)-[2,3′-bipyridin]-4′-yl)amino)cyclohexyl)propan-2-ol]	–	–	–	–	–	–	–	–	–	–	33.8	2.5	10.2	6.9	16.1	IC50 ([1]; read-out: IC50 WT, 100 μM ATP): > 10000 nM; IC50 ([2]; read-out: IC50 L858R/T790M/C797S, 100 μM ATP): 4.4 nM; IC50 ([3]; read-out: IC50 L858R/C797S, 100 μM ATP): 799 nM; IC50 ([4]; read-out: IC50 del19/T790M/C797S, 100 μM ATP): 6 nM; IC50 ([5]; read-out: IC50 del19/C797S, 100 μM ATP): 19.8 nM
CC(C)(O)c1cnc(-c2cnc(Nc3ccnc(-c4cnn(S(=O)(=O)C5CC5)c4)n3)cc2N[C@H]2CC[C@@](C)(O)CC2)cn1 [Example 118, (1s,4s)-4-((2-((2-(1-(Cyclopropylsulfonyl)-1H-pyrazol-4-yl)pyrimidin-4-yl)amino)-5-(5-(2-hydroxypropan-2-yl)pyrazin-2-yl)pyridin-4-yl)amino)-1-methylcyclohexan-1-ol]	400	–	0.2	0.7	0.05	0.04	0.1	0.3	0.1	0.1	–	–	–	–	–	–
